Where “and” joins values, the source holds several entries; their conditions need not be identical. Equal entries are not always repeated. Where two headings read alike, the source gives them in different places.
How the values were obtained:
Serotonin 5-HT2B = Serotonin 5-HT2B (Homo sapiens, UniProt P41595); experiment: Eurofins Panlabs radioligand binding panel, serotonin 5-HT2B; settings: for IC50: IC50, 10 half-log concentrations; for IC50 / Ki: 0.3 nM to 10 μM, duplicate; for Ki: 10 half-log concentrations
Serotonin 5-HT2B, sequence (P41595 whole entry): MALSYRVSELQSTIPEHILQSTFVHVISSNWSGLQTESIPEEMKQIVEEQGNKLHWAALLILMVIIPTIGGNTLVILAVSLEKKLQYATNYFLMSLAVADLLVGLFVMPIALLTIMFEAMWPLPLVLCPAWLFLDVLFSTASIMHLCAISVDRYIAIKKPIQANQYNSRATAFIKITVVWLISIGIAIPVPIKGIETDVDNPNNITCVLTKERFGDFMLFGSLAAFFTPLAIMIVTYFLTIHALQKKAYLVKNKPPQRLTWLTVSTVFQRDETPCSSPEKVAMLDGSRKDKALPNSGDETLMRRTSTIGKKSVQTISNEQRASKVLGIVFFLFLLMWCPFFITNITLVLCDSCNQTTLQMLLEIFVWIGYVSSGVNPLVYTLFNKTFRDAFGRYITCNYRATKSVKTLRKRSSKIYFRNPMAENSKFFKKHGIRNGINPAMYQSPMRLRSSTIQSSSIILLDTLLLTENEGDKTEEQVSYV

[1] = Rat brain monoamine and metabolite concentrations 1 week after cumulative SC dosing; settings: for 5-HIAA mean brain concentration / 5-HT mean brain concentration: frontal cortex; for 5-HIAA mean brain concentration / 5-HT mean brain concentration / DA mean brain concentration / DOPAC mean brain concentration / HVA mean brain concentration: male rat; for DA mean brain concentration / DOPAC mean brain concentration / HVA mean brain concentration: striatum
cortical neurons = experiment: Neurite outgrowth in embryonic rat cortical neuron cultures; type: cell-based; settings: 3 days
Description: Female Wistar rats of 17 days gestation were killed by cervical dislocation and the fetuses (typically 6 to 8 in number) were removed from the uteri. Fetal brains were placed in ice-cold medium of Leibovitz (L15, Gibco, France). Cortex was dissected and meninges were carefully removed. The cortical neurons were dissociated by trypsinization (trypsin-EDTA, Gibco) in the presence of DNAse I (Roche, France). The reaction was stopped by addition of Dulbecco's Modified Eagle Medium (DMEM; Gibco) with 10% of fetal bovine serum (FBS; Gibco). The suspension was triturated with a 10-ml pipette and a 21-gauge needle syringe and centrifuged. The pellet of dissociated cells was resuspended in a medium consisting of Neurobasal (Gibco) supplemented with 2% B27 supplement (Gibco), 0.5 mM L-Glutamine (Gibco), and an antibiotic-antimycotic mixture. Viable cells were counted in a Neubauer cytometer and cells were seeded in 96-well plates (Costar) precoated with poly-L-lysine at 10,000 cells/well. […] Stock solutions were prepared in sterile water at 10 mM and stored at −20° C. until used. Further dilutions were prepared in culture in the medium on the day of the treatment. 0.1% Sterile water was present in all tested conditions.
The experimental protocol was performed in two independent cultures (i.e., from two different pregnant rats). For each culture, each condition was tested in sextuplet (6 wells per condition per culture for a total of 12 wells per condition). […] After three days of plating and compound treatment (Day 3), cultures were fixed with paraformaldehyde in phosphate buffered saline at 4° C. (PBS, 4%, Sigma). All subsequent steps were performed at room temperature. Cells were successively permeabilized for 30 minutes using 0.1% triton, saturated with PBS containing 3% bovine serum albumin (BSA) and incubated for 1 hour with anti-beta III tubulin antibody (T5168, Sigma). […] Finally, nuclei were stained with 4′-6-diamidino-2-phenylindole (DAPI). After rinsing the cells with PBS, the plate was imaged and neurite networks were examined and analyzed using a High-Content Screening platform (CellInsight CXS, Thermo Scientific) with integrated Photometrics high-resolution fluorescent camera, Olympus objective (10×) and HCS Studio Cell Analysis Software. Approximately 2,000 neurons per well were analyzed using a validated cortex neuron outgrowth algorithm that utilizes parameters optimized for analysis of embryonic rat cortical neuron cultures. The HCS Studio Cell Analysis Software output included values for neurite total count (#), neurite total length (μm) and total number of branch points (#) for each of the 6 wells per culture. The evaluation of neurite outgrowth was performed using the average number of neurites per neuron (#), the average of total neurite length per neuron (μm) and the average number of branch points per neuron (#) across 12 wells. Data also was transformed to percent (%) of the average vehicle control value. Results were expressed as mean (±s.e.m.) of the transformed (% of vehicle control) data. Statistical analyses were performed on transformed percent of the average vehicle control data for each measure for each test article using one-way analysis of variance (Anova, StatView). Where applicable, Dunnett's test was used for multiple pairwise comparisons to the negative control (vehicle) condition. […] The level of significance was set at p value less than or equal to 0.05 (*p<0.05).

[2] = Rat plasma pharmacokinetics after cumulative (QID) SC injections; settings: for half-life: T1/2, male rat plasma
[3] = cumulative SC, 5 mg/kg/injection, 1 week after dosing
[4] = 1 week after 4 hourly SC injections of 2.5 mg/kg
[5] = 1 week after 4 hourly SC injections of 5 mg/kg
[6] = 1 week after 4 hourly SC injections of 5 mg/kg, 5 mg/kg
[7] = 1 week after 4 hourly SC injections of 10 mg/kg, N=2
[8] = 1 week after 4 hourly SC injections of 10 mg/kg, N=2, 10 mg/kg
[9] = 10 μM, vs 0.1% sterile water vehicle
[10] = from 5 to 10 mg/kg/day S-MDMA, QID SC
[11] = from 5 to 20 mg/kg/day S-MDMA, QID SC
[12] = male rat plasma, metabolite S-MDA after QID SC S-MDMA, total 5 mg/kg/day
[13] = male rat plasma, metabolite after QID SC parent, total 10 mg/kg/day
[14] = male rat plasma, metabolite after QID SC parent, total 20 mg/kg/day
[15] = any tested concentration (0.001 to 10000 nM), vs vehicle
[16] = male rat plasma, parent analyte, QID SC, total 10 mg/kg/day
[17] = male rat plasma, parent analyte, QID SC, total 20 mg/kg/day
[18] = cumulative SC, 5 mg/kg/injection, 1 week after dosing, 5 mg/kg
[19] = male rat plasma, parent analyte, QID SC, total 5 mg/kg/day

CNC(C)Cc1ccc2c(c1)OCO2 (racemic) [Racemic MDMA, 3,4-methylenedioxymethamphetamine]
% inhibition of binding or activity (Serotonin 5-HT2B; 10 uM): 85%
frontal cortex 5-HT (serotonin) compared to vehicle [1, 3]: significantly reduced frontal cortex 5-HT concentrations
5-HIAA mean brain concentration [1, 4]: 368.17 ng/g
5-HT mean brain concentration [1, 4]: 183.90 ng/g
5-HIAA mean brain concentration [1, 5]: 234.63 ng/g
5-HT mean brain concentration [1, 6]: 88.38 ng/g and 88.38 b** n* p* ng/g
5-HIAA mean brain concentration [1, 7]: 235.00 ng/g
5-HT mean brain concentration [1, 7]: 100.85 ng/g
DA mean brain concentration [1, 4]: 5956.67 ng/g
DOPAC mean brain concentration [1, 4]: 1811.00 ng/g
HVA mean brain concentration [1, 4]: 706.83 ng/g
DA mean brain concentration [1, 5]: 5190.63 ng/g
HVA mean brain concentration [1, 5]: 577.00 ng/g
DOPAC mean brain concentration [1, 6]: 1962.75 ng/g and 1962.75 h** ng/g
DA mean brain concentration [1, 7]: 7405.00 ng/g
DOPAC mean brain concentration [1, 8]: 2015.00 ng/g and 2015.00 h* ng/g
HVA mean brain concentration [1, 8]: 923.50 ng/g and 923.50 d**h* ng/g
neurite number (#) (cortical neurons; [9]): significantly increased
neurite total length (μm) (cortical neurons; [9]): significantly increased
total number of branch points (#) (cortical neurons; [9]): significantly increased

C[C@H](N)Cc1ccc2c(c1)OCO2 [S-MDA, S(+)-MDA]
% inhibition of binding or activity (Serotonin 5-HT2B; 10 uM): 82%
dose dependence of Cmax and AUC0-27 hr [2, 10]: approximately dose proportional manner
dose dependence of Cmax and AUC0-27 hr [2, 11]: greater than dose proportional manner
AUC0-27 hr [2, 12]: 1280 ng·h/mL
AUC0-27 hr/Dose [2, 12]: 256 *kg*ng/mL/mg
AUCTlast [2, 12]: 1270 ng·h/mL
Cmax [2, 12]: 342 ng/mL
Cmax/Dose [2, 12]: 68.4 kg·ng/mL/mg
Tlast [2, 12]: 9 h
Tmax [2, 12]: 4 h
Cmax ([2]; male rat plasma, metabolite after QID SC parent (R-MDA after R-MDMA, S-MDA after S-MDMA, total MDA after Rac-MDMA), total 10 mg/kg/day): 957 ng/mL
Cmax ([2]; male rat plasma, metabolite after QID SC parent (R-MDA after R-MDMA, S-MDA after S-MDMA, total MDA after Rac-MDMA), total 20 mg/kg/day): 2500 ng/mL
AUC0-27 hr [2, 13]: 6770 ng·h/mL
AUC0-27 hr/Dose [2, 13]: 677 *kg*ng/mL/mg
AUCTlast [2, 13]: 5180 ng·h/mL
Cmax/Dose [2, 13]: 95.7 kg·ng/mL/mg
Tlast [2, 13]: 11 h
Tmax [2, 13]: 5 h
AUC0-27 hr [2, 14]: 26300 ng·h/mL
AUC0-27 hr/Dose [2, 14]: 1320 *kg*ng/mL/mg
AUCTlast [2, 14]: 26300 ng·h/mL
Cmax/Dose [2, 14]: 125 kg·ng/mL/mg
Tlast [2, 14]: 27 h
Tmax [2, 14]: 5 h
neurite number (#) (cortical neurons; [15]): did not significantly alter
neurite total length (μm) (cortical neurons; [15]): did not significantly alter
total number of branch points (#) (cortical neurons; [15]): did not significantly alter

CNC(C)Cc1ccc2c(c1)OCO2 (single isomer, unassigned) [R-MDMA, R(−)-3,4-methylenedioxymethamphetamine]
inhibition at 10 µM (Serotonin 5-HT2B; 10 uM, read-out: % inhibition of binding or activity): 79%
IC50 (Serotonin 5-HT2B): 1.4 µM
Ki (Serotonin 5-HT2B): 0.89 µM
AUC(0-t) [2]: 11800 ng·h/mL
dose dependence of Cmax and AUC0-27 hr ([2]; dose increase from 10 to 20 mg/kg/day of the dosed test article, QID SC): approximately dose proportional manner
AUC0-27 hr/Dose [2, 16]: 420 *kg*ng/mL/mg
Cmax/Dose [2, 16]: 114 kg·ng/mL/mg
Tlast [2, 16]: 11 h
AUC0-27 hr/Dose [2, 17]: 590 *kg*ng/mL/mg
Cmax/Dose [2, 17]: 127 kg·ng/mL/mg
Tlast [2, 17]: 11 h
AUC(0-t) ([2]; male, Sprague-Dawley (CD), rat, plasma, sc, 10 mg/kg/day, AUC0-27 hr, male rat plasma, parent analyte, QID SC, total 10 mg/kg/day): 4200 ng·h/mL
AUC(0-t) ([2]; male, Sprague-Dawley (CD), rat, plasma, sc, 10 mg/kg/day, AUCTlast, male rat plasma, parent analyte, QID SC, total 10 mg/kg/day): 4160 ng·h/mL
Cmax ([2]; male, Sprague-Dawley (CD), rat, plasma, sc, 10 mg/kg/day, Cmax, male rat plasma, parent analyte (total MDMA after Rac-MDMA), QID SC, total 10 mg/kg/day of the test article): 1140 ng/mL
half-life ([2]; male, Sprague-Dawley (CD), rat, plasma, sc, 10 mg/kg/day, parent analyte, QID SC, total 10 mg/kg/day): 1.01 h
AUC(0-t) ([2]; male, Sprague-Dawley (CD), rat, plasma, sc, 20 mg/kg/day, AUCTlast, male rat plasma, parent analyte, QID SC, total 20 mg/kg/day): 11300 ng·h/mL
Cmax ([2]; male, Sprague-Dawley (CD), rat, plasma, sc, 20 mg/kg/day, Cmax, male rat plasma, parent analyte (total MDMA after Rac-MDMA), QID SC, total 20 mg/kg/day of the test article): 2550 ng/mL
striatal DA compared to the corresponding vehicle condition [1, 3]: significantly increased striatal DA
frontal cortex 5-HT (serotonin) compared to vehicle [1, 18]: did not reduce serotonin content in the frontal cortex
striatal HVA compared to the pooled vehicle condition ([1]; cumulative SC, 10 mg/kg/injection, n=2, 1 week after dosing): significantly reduced striatal HVA
neurite number (#) (cortical neurons; 0.0001 μM, vs 0.1% sterile water vehicle): significantly increased
neurite number (#) (cortical neurons; [9]): significantly increased
neurite total length (μm) (cortical neurons; [9]): significantly increased
total number of branch points (#) (cortical neurons; [9]): significantly increased

CNC(C)Cc1ccc2c(c1)OCO2 (single isomer, unassigned) [S-MDMA, S(+)-MDMA]
IC50 (Serotonin 5-HT2B): 12 µM
Ki (Serotonin 5-HT2B): 7.65 µM
dose dependence of Cmax and AUC0-27 hr [2, 10]: approximately dose proportional manner
dose dependence of Cmax and AUC0-27 hr [2, 11]: greater than dose proportional manner
Cmax ([2]; male rat plasma, parent analyte (total MDMA after Rac-MDMA), QID SC, total 10 mg/kg/day of the test article): 1220 ng/mL
Cmax ([2]; male rat plasma, parent analyte (total MDMA after Rac-MDMA), QID SC, total 20 mg/kg/day of the test article): 2560 ng/mL
AUC0-27 hr/Dose [2, 19]: 302 *kg*ng/mL/mg
Cmax/Dose [2, 19]: 89.3 kg·ng/mL/mg
Tlast [2, 19]: 7 h
AUC0-27 hr [2, 16]: 4130 ng·h/mL
AUC0-27 hr/Dose [2, 16]: 413 *kg*ng/mL/mg
AUCTlast [2, 16]: 4030 ng·h/mL
Cmax/Dose [2, 16]: 122 kg·ng/mL/mg
T1/2 [2, 16]: 1.15 h
Tlast [2, 16]: 11 h
Tmax ([2]; male rat plasma, parent analyte, QID SC, total 10 mg/kg/day, time after 1st injection): 3.5 h
AUC0-27 hr [2, 17]: 15000 ng·h/mL
AUC0-27 hr/Dose [2, 17]: 748 *kg*ng/mL/mg
AUCTlast [2, 17]: 15000 ng·h/mL
Cmax/Dose [2, 17]: 128 kg·ng/mL/mg
Tlast [2, 17]: 27 h
AUC(0-t) ([2]; male, CD (Sprague Dawley), rat, plasma, sc, 5 mg/kg/day, AUC0-27 hr, male rat plasma, parent analyte, QID SC, total 5 mg/kg/day): 1510 ng·h/mL
AUC(0-t) ([2]; male, CD (Sprague Dawley), rat, plasma, sc, 5 mg/kg/day, AUCTlast, male rat plasma, parent analyte, QID SC, total 5 mg/kg/day): 1490 ng·h/mL
half-life ([2]; male, CD (Sprague Dawley), rat, plasma, sc, 5 mg/kg/day, parent analyte, QID SC, total 5 mg/kg/day): 0.754 h
half-life ([2]; male, CD (Sprague Dawley), rat, plasma, sc, 20 mg/kg/day, parent analyte, QID SC, total 20 mg/kg/day): 3.17 h
Cmax ([2]; male, Sprague-Dawley (CD), rat, plasma, sc, 5 mg/kg/day, Cmax, male rat plasma, parent analyte, QID SC, total 5 mg/kg/day of the test article): 447 ng/mL
frontal cortex 5-HT (serotonin) compared to vehicle [1, 18]: significantly decreased frontal cortex 5-HT concentrations
neurite number (#) (cortical neurons; [15]): did not significantly alter
neurite total length (μm) (cortical neurons; [15]): did not significantly alter
total number of branch points (#) (cortical neurons; [15]): did not significantly alter
